Three molecules from article PMC13195669, “GPR3 Ligands Discovered through Combined Virtual and Conformational Biosensor-Based Screening” (Journal of the American Chemical Society, 2026) can be followed below.

Molecules are shown by their SMILES.

The subject of this assay is β2AR. Briefly: β2AR-HaloTag/Nluc conformational biosensor (negative control) in HEK293A cells. It is filed as cell-based, human. To be noted: β2AR-HaloTag/Nluc as negative control; HEK293A stable. As to the method:
Initially, all 93 molecules were tested for activity at the GPR3 biosensor at a concentration of 1 μM (Figure a). […] Of the five compounds that emerged from the virtual screen, three–hereafter referred to as virtual hit 1–3, VH1/2/3–were selected for in-house chemical synthesis (compounds 52, 93, and 115; cf. Scheme , Figure S6), providing compounds of ≥99% purity for hit validation (NMR spectra: Figures S7–S142; HPLC purity: Figures S143–S218). For VH1, the racemic mix, rac-VH1/52, was synthesized and used for testing. Compounds 52, VH2/93, and VH3/115 (Figure S6) were then validated with the GPR3 biosensor including β2AR-HaloTag/Nluc as a negative control.
BRET-based GPCR conformational sensor experiments
Cells expressing the conformational GPCR biosensors were grown for 24 h (stable cells) or 48 h (transiently transfected cells) in white 96-well plates and washed with 100 µl of HBSS. After washing, cells were incubated for 2 minutes with a 1/1000 solution of the furimazine stock solution (Promega; cat. no. N1662). Three baseline BRET reads were recorded and averaged prior to the addition of serial dilutions of ligands or veh icle control and subsequent BRET reads. All experiments were con-ducted at 37 °C. BRE T donor emission was quantified with a 470/80 nm monochromator. BRET acceptor emission was quan-tified using a 660/100 nm monochromator. Experiments were carried out using a CLARIOstar plate reader. […]
FRET and BRET ratios were defined as acceptor emission/donor emission. […] To quantify ligand-induced changes ΔFRET and ΔBRET were calculated for each well as a percent over basal ([(Ratiostim − Ratiobasal)/Ratiobasal] × 100). […]
Data from FRET/BRET experiments were fitted using a three-parameter fit. Z-factors expressing the high-throughput suita-bility were calculated with the following equation: […]
Commercially available chemicals and solvents were purchased from standard commercial suppliers (Merck (Darmstadt, Ger-many), Sigma-Aldrich (Munich, Germany), Acros Organics (Geel, Belgium), Alfa Aesar (Karlsruhe, Germany), abcr (Karlsruhe, Germany), BLD Pharmatech (Reinbek, Germany) or TCI Europe (Zwijndrecht, Belgium) and were used as received. Deuter-ated solvents for nuclear magnetic resonance (1H NMR and 13C NMR) spectra were purchased from Deutero GmbH (Kastel-laun, Germany). All reactions carried out with dry solvents were accomplished in dry flasks under nitrogen or argon atmos-phere. For the preparation of buffers, HPLC eluents, and stock solutions millipore water was used. […] The reactions were monitored by thin layer chromatography (TLC) on Merck silica gel 60 F254 aluminium sheets and spots were visualized under UV light at 254 nm, by potassium permanganate or ninhydrin staining. […]
As for `N=c1n(Cc2ccccc2)c2ccccc2n1CC(O)COc1ccc(Cl)cc1` (stereo not drawn) [compound 52], the “specificity of conformational response for GPR3 vs β2AR-HaloTag/Nluc” value (shortened to “specificity … vs β2AR-HaloTag/Nluc”) is “concentration-dependent and GPR3-specific conformational changes”. Turning to `N=c1n(Cc2ccccc2)c2ccccc2n1CC1CC1` [compound 33], the “specificity … vs β2AR-HaloTag/Nluc” value is recorded as “selectivity for GPR3 over β2AR”. On to `Cc1ccc(NC(=O)CN2CCN(C(=O)CCc3ccc(Cl)cc3)CC2)cc1` [compound 115], for which the “specificity … vs β2AR-HaloTag/Nluc” value is “concentration-dependent and GPR3-specific conformational changes”.
